How the values were obtained:
168 GPCRs [1] = target: T1, 168 GPCRs (Homo sapiens, UniProt P32249); assay: β-arrestin GPCR screen (PathHunter/GPCRmax), agonist mode; assay type: cell-based; set-up: host or cells: PathHunter cell lines; details: GPCR EBI2; Agonist mode; 10 uM
Experimental: (§1) For agonist determination, cells were incubated with sample to induce response. […] Vehicle concentration was 1%.

168 GPCRs [2] = target: T2, 168 GPCRs (Homo sapiens, UniProt O95838); assay: as above; assay type: cell-based; set-up: host or cells: PathHunter cell lines; details: GPCR GLP2R; Agonist mode; 10 uM
Experimental: as §1

168 GPCRs [3] = target: 168 GPCRs (Homo sapiens, UniProt Q8NFJ6); assay: as above; assay type: cell-based; set-up: host or cells: PathHunter cell lines; details: PROKR2; Agonist; 1 uM
Experimental: as §1

168 GPCRs [4] = target: 168 GPCRs (Homo sapiens, UniProt P41968); assay: β-arrestin GPCR screen (PathHunter/GPCRmax), antagonist mode; details: GPCR MC3R; Antagonist mode; 10 uM
168 GPCRs [5] = target: 168 GPCRs (Homo sapiens, UniProt P35367); assay: as above; details: GPCR HRH1; Antagonist mode; 10 uM
168 GPCRs [6] = target: 168 GPCRs (Homo sapiens, UniProt Q9HBW0); assay: as above; details: EDG4; Antagonist; 1 uM
168 GPCRs [7] = target: 168 GPCRs (Homo sapiens, UniProt P47211); assay: as above; details: GPCR GALR1; Antagonist mode; 10 uM
168 GPCRs [8] = target: 168 GPCRs (Homo sapiens, UniProt Q9NSD7); assay: as above; details: GPCR RXFP3; Antagonist mode; 10 uM
168 GPCRs [9] = target: 168 GPCRs (Homo sapiens, UniProt P50391); assay: as above; details: PPYR1; Antagonist; 1 uM
168 GPCRs [10] = target: T1, 168 GPCRs; assay: as above; details: GPCR EBI2; Antagonist mode; 10 uM
168 GPCRs [11] = target: 168 GPCRs (Homo sapiens, UniProt Q8TDS5); assay: as above; details: GPCR OXER1; Antagonist mode; 10 uM
168 GPCRs [12] = target: T2, 168 GPCRs; assay: as above; details: GLP2R; Antagonist; 1 uM
168 GPCRs [13] = target: 168 GPCRs (Homo sapiens, UniProt P21462); assay: as above; details: FPR1; Antagonist; 1 uM
168 GPCRs [14] = target: 168 GPCRs (Homo sapiens, UniProt Q969F8); assay: as above; details: KISS1R; Antagonist; 1 uM
168 GPCRs [15] = target: 168 GPCRs (Homo sapiens, UniProt Q01726); assay: as above; details: GPCR MC1R; Antagonist mode; 10 uM
168 GPCRs [16] = target: 168 GPCRs (Homo sapiens, UniProt Q96RI0); assay: as above; details: F2RL3; Antagonist; 1 uM
168 GPCRs [17] = target: 168 GPCRs (Homo sapiens, UniProt P47872); assay: as above; details: SCTR; Antagonist; 1 uM
168 GPCRs [18] = target: 168 GPCRs (Homo sapiens, UniProt P43115); assay: as above
168 GPCRs [19] = target: 168 GPCRs (Homo sapiens, UniProt P21918); assay: as above; details: DRD5; Antagonist; 1 uM
168 GPCRs [20] = target: 168 GPCRs (Homo sapiens, UniProt Q15077); assay: as above; details: P2RY6; Antagonist; 1 uM
168 GPCRs [21] = target: 168 GPCRs (Homo sapiens, UniProt Q99500); assay: as above; details: GPCR EDG3; Antagonist mode; 10 uM
168 GPCRs [22] = target: 168 GPCRs (Homo sapiens, UniProt P30988); assay: as above; details: CALCR-RAMP3, Antagonist
168 GPCRs [23] = target: 168 GPCRs (Homo sapiens, UniProt P41587); assay: as above; details: GPCR VIPR2; Antagonist mode; 10 uM
168 GPCRs [24] = target: 168 GPCRs (Homo sapiens, UniProt P41586); assay: as above; details: ADCYAP1R1; Antagonist; 1 uM
168 GPCRs [25] = target: 168 GPCRs (Homo sapiens, UniProt P08172); assay: as above; details: CHRM2; Antagonist; 1 uM

T2 sequence (O95838 whole entry): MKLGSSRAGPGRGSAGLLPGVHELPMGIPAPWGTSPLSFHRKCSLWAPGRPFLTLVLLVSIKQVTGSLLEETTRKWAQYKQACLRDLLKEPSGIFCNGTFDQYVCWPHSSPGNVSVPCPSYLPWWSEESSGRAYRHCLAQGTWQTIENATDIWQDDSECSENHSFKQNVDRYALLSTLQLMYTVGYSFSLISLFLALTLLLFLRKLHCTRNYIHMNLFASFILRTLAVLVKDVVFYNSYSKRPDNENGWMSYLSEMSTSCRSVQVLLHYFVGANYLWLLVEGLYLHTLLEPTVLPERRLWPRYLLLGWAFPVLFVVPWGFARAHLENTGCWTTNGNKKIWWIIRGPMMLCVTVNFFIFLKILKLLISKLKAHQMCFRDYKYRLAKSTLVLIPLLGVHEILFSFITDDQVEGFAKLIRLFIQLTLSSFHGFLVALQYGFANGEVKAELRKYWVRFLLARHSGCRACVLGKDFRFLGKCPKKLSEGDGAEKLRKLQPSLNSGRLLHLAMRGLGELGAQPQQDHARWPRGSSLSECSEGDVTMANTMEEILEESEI
T1 sequence (P32249 whole entry): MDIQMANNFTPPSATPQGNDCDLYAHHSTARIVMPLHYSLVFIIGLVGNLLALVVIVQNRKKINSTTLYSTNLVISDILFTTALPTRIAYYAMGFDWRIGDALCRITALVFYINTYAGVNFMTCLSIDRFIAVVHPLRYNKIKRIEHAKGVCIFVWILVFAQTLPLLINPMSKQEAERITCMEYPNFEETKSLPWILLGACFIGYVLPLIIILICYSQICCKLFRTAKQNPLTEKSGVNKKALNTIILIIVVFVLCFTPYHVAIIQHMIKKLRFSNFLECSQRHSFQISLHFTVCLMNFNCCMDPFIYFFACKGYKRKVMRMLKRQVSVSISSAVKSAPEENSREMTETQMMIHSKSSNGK
Sequence of 168 GPCRs (Homo sapiens, UniProt P43115) (P43115 whole entry): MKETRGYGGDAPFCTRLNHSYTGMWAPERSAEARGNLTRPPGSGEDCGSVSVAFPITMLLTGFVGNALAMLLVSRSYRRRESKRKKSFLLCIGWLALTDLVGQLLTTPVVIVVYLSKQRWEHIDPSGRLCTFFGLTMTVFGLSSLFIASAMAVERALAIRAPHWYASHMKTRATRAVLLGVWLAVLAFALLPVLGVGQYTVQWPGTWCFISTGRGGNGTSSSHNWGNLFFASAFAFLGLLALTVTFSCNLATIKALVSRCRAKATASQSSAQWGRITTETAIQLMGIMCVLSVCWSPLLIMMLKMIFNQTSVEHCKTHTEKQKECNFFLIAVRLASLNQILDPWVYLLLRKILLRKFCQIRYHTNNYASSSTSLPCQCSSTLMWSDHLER
Sequence of 168 GPCRs (Homo sapiens, UniProt P30988) (P30988 25-474): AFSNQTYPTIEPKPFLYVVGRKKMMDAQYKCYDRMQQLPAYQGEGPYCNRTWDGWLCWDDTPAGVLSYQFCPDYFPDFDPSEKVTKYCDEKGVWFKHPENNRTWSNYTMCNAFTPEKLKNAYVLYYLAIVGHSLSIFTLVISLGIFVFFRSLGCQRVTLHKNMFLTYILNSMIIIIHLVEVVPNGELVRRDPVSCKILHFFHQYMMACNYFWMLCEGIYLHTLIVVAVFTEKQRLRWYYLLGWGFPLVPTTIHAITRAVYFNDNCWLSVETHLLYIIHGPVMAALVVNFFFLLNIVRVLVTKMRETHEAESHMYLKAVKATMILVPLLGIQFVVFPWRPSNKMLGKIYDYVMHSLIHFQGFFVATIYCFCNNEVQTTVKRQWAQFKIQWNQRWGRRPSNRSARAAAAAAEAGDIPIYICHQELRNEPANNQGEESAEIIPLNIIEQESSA
Sequence of 168 GPCRs (Homo sapiens, UniProt Q9NSD7) (Q9NSD7 whole entry): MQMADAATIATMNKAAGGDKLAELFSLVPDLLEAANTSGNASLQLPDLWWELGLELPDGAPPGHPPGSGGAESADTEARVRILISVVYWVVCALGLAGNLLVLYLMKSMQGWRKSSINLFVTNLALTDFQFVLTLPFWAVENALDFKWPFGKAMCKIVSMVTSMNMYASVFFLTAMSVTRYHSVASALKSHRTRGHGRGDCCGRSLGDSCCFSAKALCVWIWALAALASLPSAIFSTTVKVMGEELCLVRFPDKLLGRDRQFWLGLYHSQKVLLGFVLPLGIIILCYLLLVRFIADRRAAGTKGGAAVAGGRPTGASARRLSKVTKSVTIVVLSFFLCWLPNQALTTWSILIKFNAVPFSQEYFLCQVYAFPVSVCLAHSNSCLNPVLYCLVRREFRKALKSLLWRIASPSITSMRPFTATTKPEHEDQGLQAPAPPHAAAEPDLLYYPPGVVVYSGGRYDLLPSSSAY
Sequence of 168 GPCRs (Homo sapiens, UniProt Q9HBW0) (Q9HBW0 whole entry): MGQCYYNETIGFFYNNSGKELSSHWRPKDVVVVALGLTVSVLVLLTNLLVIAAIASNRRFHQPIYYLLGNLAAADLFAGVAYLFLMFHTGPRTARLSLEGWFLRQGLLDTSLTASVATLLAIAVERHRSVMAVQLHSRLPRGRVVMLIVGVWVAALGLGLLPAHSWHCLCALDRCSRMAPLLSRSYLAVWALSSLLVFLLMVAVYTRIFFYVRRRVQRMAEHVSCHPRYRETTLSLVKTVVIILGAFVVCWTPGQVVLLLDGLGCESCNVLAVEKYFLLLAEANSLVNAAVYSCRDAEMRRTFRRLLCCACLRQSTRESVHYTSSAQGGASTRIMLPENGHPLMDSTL
Sequence of 168 GPCRs (Homo sapiens, UniProt P35367) (P35367 whole entry): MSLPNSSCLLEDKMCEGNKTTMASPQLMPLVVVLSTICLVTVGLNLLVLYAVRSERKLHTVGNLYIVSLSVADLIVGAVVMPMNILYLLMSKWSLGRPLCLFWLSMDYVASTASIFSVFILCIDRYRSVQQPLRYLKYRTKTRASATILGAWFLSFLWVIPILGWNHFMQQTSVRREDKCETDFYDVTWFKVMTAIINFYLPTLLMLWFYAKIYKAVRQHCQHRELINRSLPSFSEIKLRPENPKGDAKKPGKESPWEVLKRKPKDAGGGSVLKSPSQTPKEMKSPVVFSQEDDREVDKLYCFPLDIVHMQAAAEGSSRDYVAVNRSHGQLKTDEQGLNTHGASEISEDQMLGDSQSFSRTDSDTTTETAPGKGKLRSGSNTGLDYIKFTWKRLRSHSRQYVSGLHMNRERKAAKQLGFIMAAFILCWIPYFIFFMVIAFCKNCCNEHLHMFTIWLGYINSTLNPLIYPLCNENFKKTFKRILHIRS
Sequence of 168 GPCRs (Homo sapiens, UniProt P50391) (P50391 whole entry): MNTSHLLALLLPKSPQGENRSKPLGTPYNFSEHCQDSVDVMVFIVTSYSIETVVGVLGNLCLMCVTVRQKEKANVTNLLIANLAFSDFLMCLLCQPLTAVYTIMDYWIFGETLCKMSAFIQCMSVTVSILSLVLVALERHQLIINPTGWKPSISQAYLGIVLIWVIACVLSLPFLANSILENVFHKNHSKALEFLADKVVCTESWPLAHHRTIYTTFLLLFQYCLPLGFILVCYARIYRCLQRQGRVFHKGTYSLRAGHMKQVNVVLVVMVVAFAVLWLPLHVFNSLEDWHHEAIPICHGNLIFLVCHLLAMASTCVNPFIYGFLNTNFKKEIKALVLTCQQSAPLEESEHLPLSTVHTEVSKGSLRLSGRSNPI
Sequence of 168 GPCRs (Homo sapiens, UniProt P47211) (P47211 whole entry): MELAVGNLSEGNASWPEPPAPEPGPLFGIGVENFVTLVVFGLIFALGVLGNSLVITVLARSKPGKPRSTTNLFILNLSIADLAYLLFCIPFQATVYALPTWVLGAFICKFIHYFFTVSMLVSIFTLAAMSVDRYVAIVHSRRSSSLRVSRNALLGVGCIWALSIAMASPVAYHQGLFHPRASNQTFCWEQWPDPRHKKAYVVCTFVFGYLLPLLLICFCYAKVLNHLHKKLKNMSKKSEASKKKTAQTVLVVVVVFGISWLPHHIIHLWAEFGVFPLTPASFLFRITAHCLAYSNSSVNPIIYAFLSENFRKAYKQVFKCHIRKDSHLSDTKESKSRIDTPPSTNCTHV
Sequence of 168 GPCRs (Homo sapiens, UniProt P21918) (P21918 whole entry): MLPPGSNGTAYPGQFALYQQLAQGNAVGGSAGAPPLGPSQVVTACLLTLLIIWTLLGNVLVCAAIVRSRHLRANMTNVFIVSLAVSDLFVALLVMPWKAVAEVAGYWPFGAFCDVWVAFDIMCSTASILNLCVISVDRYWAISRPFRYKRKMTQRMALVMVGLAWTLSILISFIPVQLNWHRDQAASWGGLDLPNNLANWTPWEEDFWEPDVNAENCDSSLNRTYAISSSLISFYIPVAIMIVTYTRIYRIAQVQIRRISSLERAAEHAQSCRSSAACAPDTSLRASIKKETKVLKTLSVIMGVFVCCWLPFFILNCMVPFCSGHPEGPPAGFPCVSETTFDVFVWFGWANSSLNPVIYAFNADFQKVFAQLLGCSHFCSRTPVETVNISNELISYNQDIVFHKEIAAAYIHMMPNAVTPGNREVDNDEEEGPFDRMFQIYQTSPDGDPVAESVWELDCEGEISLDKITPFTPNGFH
Sequence of 168 GPCRs (Homo sapiens, UniProt Q8NFJ6) (Q8NFJ6 whole entry): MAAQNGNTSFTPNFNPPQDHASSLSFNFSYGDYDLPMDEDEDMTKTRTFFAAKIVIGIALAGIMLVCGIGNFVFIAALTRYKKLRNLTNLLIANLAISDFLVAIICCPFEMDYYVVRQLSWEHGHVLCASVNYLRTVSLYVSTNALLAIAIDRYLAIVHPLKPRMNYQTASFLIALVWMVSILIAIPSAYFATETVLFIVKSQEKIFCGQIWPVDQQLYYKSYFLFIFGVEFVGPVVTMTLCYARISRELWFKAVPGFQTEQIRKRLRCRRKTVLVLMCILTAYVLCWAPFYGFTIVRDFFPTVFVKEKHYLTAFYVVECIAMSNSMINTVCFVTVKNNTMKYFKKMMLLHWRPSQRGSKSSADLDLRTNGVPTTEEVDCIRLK

## CNC(C)C(=O)c1ccc2c(c1)OCO2 (stereo not drawn) [methylone, 3,4-methylenedioxy-N-methylcathinone]
168 GPCRs [1]
  activity at 10 µM: -0.1%
168 GPCRs [2]
  activity at 10 µM: -1%
168 GPCRs [3]
  activity at 1 µM: ~0%
168 GPCRs [4]
  activity at 10 µM: -0.3%
168 GPCRs [5]
  activity at 10 µM: -2.2%
168 GPCRs [6]
  activity at 1 µM: ~-10%
168 GPCRs [7]
  activity at 10 µM: 8.8%
168 GPCRs [8]
  activity at 10 µM: ~32%
168 GPCRs [9]
  activity at 1 µM: ~9%
168 GPCRs [10]
  activity at 10 µM: -2.6%
168 GPCRs [11]
  activity at 10 µM: ~7%
168 GPCRs [12]
  activity at 1 µM: 6.4%
168 GPCRs [13]
  activity at 1 µM: ~-4%
168 GPCRs [14]
  activity at 1 µM: 25.7%
168 GPCRs [15]
  activity at 10 µM: ~15%
168 GPCRs [16]
  activity at 1 µM: ~-11%
168 GPCRs [17]
  activity at 1 µM: ~6%
168 GPCRs [18]; GPCR PTGER3, Antagonist mode, 10 uM
  activity at 10 µM: -5.7%
168 GPCRs [18]; PTGER3, Antagonist, 1 uM
  activity at 1 µM: 8.2%
168 GPCRs [19]
  activity at 1 µM: -6.9%
168 GPCRs [20]
  activity at 1 µM: ~8%
168 GPCRs [21]
  activity at 10 µM: -13.6%
168 GPCRs [22]; 1 uM
  activity at 1 µM: ~-8%
168 GPCRs [22]; 10 uM
  activity at 10 µM: -3.3%
168 GPCRs [23]
  activity at 10 µM: ~-2%
168 GPCRs [24]
  activity at 1 µM: ~13%
168 GPCRs [25]
  activity at 1 µM: -18.9%

— patent US20250332139A1, “PS[…] AND THEIR USE FOR TREATING […] AND NE[…] DISORDERS” (Transcend Therapeutics, Inc., priority 2021, published 2025)
